The values that follow come from patent publication US8012956B2, “Tropane compounds” (Exelixis, Inc., priority 2007, dated 2011).

The target of this experiment is HSP90 (Homo sapiens, UniProt P07900). The experiment can be described thus: HSP90 inhibition (HSP90 IC50). It is filed as biochemical.
For the compound `COc1cccc(C(=O)N[C@H]2C[C@H]3CC[C@@H](C2)N3c2ccc(C(=O)NCc3ccc(N4CCN(C)CC4)c(F)c3)cn2)c1C` [N-{[3-fluoro-4-(4-methylpiperazin-1-yl)phenyl]methyl}-6-[3-endo-({[2-methyl-3-(methyloxy)phenyl]carbonyl}amino)-8-azabicyclo[3.2.1]oct-8-yl]pyridine-3-carboxamide], the IC50 was under 500 nM.

`COc1ccc(CNC(=O)c2ccc(N3[C@@H]4CC[C@H]3C[C@@H](NC(=O)c3cccc(OC)c3C)C4)nc2)cc1F` [N-{[3-fluoro-4-(methyloxy)phenyl]methyl}-6-[3-endo-({[2-methyl-3-(methyloxy)phenyl]carbonyl}amino)-8-azabicyclo[3.2.1]oct-8-yl]pyridine-3-carboxamide] came in with a half-maximal inhibitory concentration (IC50) of under 500 nM.

Compound `COc1cc(F)ccc1CNC(=O)c1ccc(N2[C@@H]3CC[C@H]2C[C@@H](NC(=O)c2cccc(OC)c2C)C3)nc1` [N-{[4-fluoro-2-(methyloxy)phenyl]methyl}-6-[3-endo-({[2-methyl-3-(methyloxy)phenyl]carbonyl}amino)-8-azabicyclo[3.2.1]oct-8-yl]pyridine-3-carboxamide] yielded an IC50 of 1000 to 2000 nM.

`COc1cc(CNC(=O)c2ccc(N3[C@@H]4CC[C@H]3C[C@@H](NC(=O)c3cccc(OC)c3C)C4)nc2)ccc1F` [N-{[4-fluoro-3-(methyloxy)phenyl]methyl}-6-[3-endo-({[2-methyl-3-(methyloxy)phenyl]carbonyl}amino)-8-azabicyclo[3.2.1]oct-8-yl]pyridine-3-carboxamide] registered an IC50 of 500 to 999 nM.

Turning to `CCOC(=O)N1CCC(NC(=O)c2ccc(N3[C@@H]4CC[C@H]3C[C@@H](NC(=O)c3cccc(OC)c3C)C4)nc2)CC1` [ethyl 4-[({6-[3-endo-({[2-methyl-3-(methyloxy)phenyl]carbonyl}amino)-8-azabicyclo[3.2.1]oct-8-yl]pyridin-3-yl}carbonyl)amino]piperidine-1-carboxylate], the IC50 was under 500 nM.

Turning to “N4-(8-{5-[({(1S)- 1-[4-(4- methylpiperazin-1- yl)phenyl]ethyl}amino)carbonyl]pyridin- 2-yl}-8-azabicyclo[3.2.1]oct-3- endo-yl)-2-(phenylamino)benzene- 1,4-dicarboxamide”, the IC50 is under 500 nM.

Compound “N4-[8-(5-butanoylpyridin-2-yl)-8- azabicyclo[3.2.1]oct-3-endo-yl]-2- [(cyclopropylmethyl)amino]benzene- 1,4-dicarboxamide” came in with a 50% inhibitory concentration (IC50) of 500 to 999 nM.

Take “N4-{8-[5- (cyclopropylcarbonyl)pyridin-2-yl]-8- azabicyclo[3.2.1]oct-3-endo-yl}-2- [(cis-4-hydroxy-4- methylcyclohexyl)amino]benzene- 1,4-dicarboxamide”: the IC50 is under 500 nM.

In turn, “N-[8-(5-acetylpyradin-2-yl)-8- azabicyclo[3.2.1]oct-3-endo-yl]-2- methyl-3-(methyloxy)benzamide” had an IC50 of 500 to 999 nM.

With “N-[(1S,2S)-2-hydroxycyclopentyl]-6- [3-endo-({[2-methyl-3- (methyloxy)phenyl]oarbonyl}amino)- 8-azabicyclo[3.2.1]oct-8-yl]pyridine- 3-carboxamide”, the IC50 was 500 to 999 nM.

In the case of “N-{8-[5-(cyclopropylcarbonyl)pyridin- 2-yl]-8-azabicyclo[3.2.1]oct-3-endo- yl}-5-[(1-ethylpropyl)amino]-2- methylbenzene-1,4-dicarboxamide”, the IC50 was under 500 nM.

For orientation: IC50 means the point on the concentration scale where inhibition reaches its midpoint.
